# Patent US20080045796A1, “HISTOFLUORESCENT STAIN COMPOSITION FOR ENDOSCOPY” (PENTAX CORPORATION, priority 2006, published 2008)
# Columns and labels:
# [1] = tested on: large intestine extracted from a mouse; test: Stainability and tissue penetrability, fluorescence observation of frozen sections; settings: 6 μm frozen sections, stained as in Example 3
# From the text: The stainability and tissue penetrability of Fast Green FCF (Fast Green GCF, Wako Pure Chemical Industries, Ltd.) were checked by observation of a tissue specimen.
# A tissue specimen of the large intestine extracted from a mouse, which had been stained in the same manner as in Example 3, was embedded in an OCT Compound (Sakura Finetek Corp., Tissue-Tek O.C.T. compound), and was frozen by rapidly cooling with dry ice. The frozen section was sliced into 6 μm to prepare frozen sections, and fluorescence observation was performed. The fluorescence observation was performed using a confocal microscope (Leica Microsystems Corp., TCP-SP2) (imaging conditions: using a lens of 40 magnifications, pinhole diameter 171.3 μm).
# A tissue section which was similarly embedded in the OCT compound was HE-stained, and the observation result is shown in FIG. 9 as a Comparative Example.
# large intestine = test: Tail vein administration, stainability for different regions: large intestine; assay type: in vivo, mouse; settings: 10 mg/mL, 100 μL tail vein, laparotomy after 5 minutes
# Procedure: (§1) An evaluation of the tissue stain composition of the present invention was performed for the stainability for different regions. Duodenum, large intestine and liver were extracted and observed.
# (§2) Fast Green FCF was prepared to 10 mg/mL using physiological saline at pH 6.0. 100 μL of the prepared Fast Green FCF was administered to a mouse (ddY, 11 weeks old, male) through the tail vein, and the mouse was subjected to laparotomy after 5 minutes. The penetrability was observed by naked eyes, and the stainability and fluorescence were observed using a confocal microscope (Leica Microsystems Corp., TCP-SP2).
# The conditions for the confocal microscopic observation were such that the diameter of the confocal pinhole was 1.00 airy, and a cross-sectional image of an area about 10 μm deep from the luminal surface, which image was taken using an oil immersion lens of 63 magnifications, is presented in FIG. 11.
# [2] = tested on: large intestine of a mouse; test: Stainability: stain solution injected into large intestine, confocal cross-section of the lumen; settings: 1.0 mg/mL, pH 6, 100 μL injected; images at every 5.0 μm from the luminal surface
# Procedure: Fast Green FCF was prepared to 1.0 mg/mL using a 0.1 M sodium phosphate buffer solution (pH 6), and 100 μL of the stain solution was injected into the large intestine of a mouse (ddY, 11 weeks old, male). To stain the large intestine evenly while preventing outflow of the stain, the mouse was subjected to laparotomy, and the stain was injected while clipping the upward colon side and the downward colon side of the extracted large intestine with hemostatic clips.
# The imaging conditions were such that the diameter of the confocal pinhole was 1.00 airy, and a lens of 20 magnifications was used.
# Duodenum = test: Tail vein administration, stainability for different regions: duodenum; assay type: in vivo, mouse
# Procedure: as §1, §2
# The conditions for the confocal microscopic observation were such that the diameter of the confocal pinhole was 1.00 airy, and an oil immersion lens of 63 magnifications was used.
# liver = test: Tail vein administration, stainability for different regions: liver; assay type: in vivo, mouse
# Procedure: as §1, §2
# Furthermore, the surrounding septum was more strongly stained. The conditions for the confocal microscopic observation were such that the diameter of the confocal pinhole was 1.00 airy, and a cross-sectional image of an area 10 μm deep from the luminal surface, which image was taken using an oil immersion lens of 63 magnifications, is presented in FIG. 12.
# mouse large intestine = test: Confocal microscope observation of extracted large intestine piece stained with the stain (stain specificity)
# Procedure: In order to find the stain specificity of the stain, Fast Green FCF (Wako Pure Chemical Industries, Ltd.) was diluted to a 2.0 mg/mL preparation using a 0.1 M sodium phosphate buffer solution (pH 7), and observation was performed using a confocal microscope (Leica Microsystems Corp., TCS-SP2).
# For the sample, a mouse was subjected to laparotomy to extract the large intestine, which was then cut into a piece of 1 cm at every edge and stained with the stain.
# The diameter of the confocal pinhole was 1.00 airy, and an oil immersion lens of 63 magnifications was used.
# Staining was performed by immersion in the same manner as in Example 2, excitation was induced at a wavelength of 488 nm, and the fluorescent images were observed.
# The conditions for the confocal microscope were the same, except for the wavelength of the irradiated laser.
# [3] = tested on: tumor tissue developed in the upper part of the ovary of a rat; test: Extracted tumor tissue immersed in stain, confocal microscope observation (single and double staining)
# Procedure: Fast Green FCF was prepared to 1.0 mg/mL using a 0.1 M sodium phosphate buffer solution (pH 7).
# The tumor tissue of the rat was extracted and immersed in the prepared stain for 5 minutes to stain the tissue. The remaining unpenetrated portion of the Fast Green was washed off with a 0.1 M sodium phosphate buffer solution (pH 6), and observation was made using a confocal microscope.
# The observation conditions were such that the pinhole diameter was 1.00 airy, and an oil immersion lens of 63 magnifications was used.
# To verify the stainability at a tumor part, Monascus Yellow was used together with Fast Green FCF to perform double staining. The Monascus Yellow was prepared to 1.0 mg/mL using a 0.1 M sodium phosphate buffer solution (pH 6).
# [4] = Measurement of absorption spectrum and fluorescence excitation spectrum; assay type: physicochemical
# Procedure: Measurement of an absorption spectrum and a fluorescence excitation spectrum of Fast Green FCF was performed. The Fast Green FCF (Wako Pure Chemical Industries, Ltd.) was adjusted to 1.0 mg/ml, and the light absorbance was continuously measured at a wavelength of from 200 to 750 nm using a spectrophotometer (manufactured by Shimadzu Corp., BioSpec-1600) to determine the wavelength at which the absorbance reached the maximum. The maximum absorption wavelength of 628 nm thus obtained was irradiated as an excitation wavelength, and the wavelength of the scattered light detected in the perpendicular direction to the light axis of the excitation light was measured using a fluorescence spectrophotometer (manufactured by Shimadzu Corp., RF-1500), thus to obtain a maximum excitation wavelength of 628 nm and a maximum fluorescence wavelength of 652 nm.
# [5] = 10 mg/mL, 100 μL tail vein, laparotomy after 5 minutes
compound,measurement,setting,value
CCN(Cc1cccc(S(=O)(=O)[O-])c1)c1ccc(C(=C2C=CC(=[N+](CC)Cc3cccc(S(=O)(=O)[O-])c3)C=C2)c2ccc(O)cc2S(=O)(=O)[O-])cc1.[Na+].[Na+] [Fast Green FCF],"fluorescent contrast in frozen section, compared with HE staining",[1],provided good fluorescent contrast for the lamina propria mucosae
same,color change visible by naked eyes,large intestine,did not show color changes that were clear enough to be visible by naked eyes
same,penetration of the dye,large intestine,the dye penetrated sufficiently to the extent that imaging by a confocal imaging system was possible
same,staining site under confocal microscope,large intestine,"The intercellular space near the luminal surface, and the lamina propria mucosae were well stained"
same,fluorescent contrast in confocal cross-sectional images,[2],provides good fluorescent contrast for the lamina propria mucosae
same,staining site under confocal microscope,Duodenum; [5],Strong staining was achieved not in the cytoplasm but in the cellular membrane or intercellular space
same,staining visible by naked eyes,Duodenum; [5],stained in deep-green color to an extent of being clearly visible by naked eyes
same,fluorescent contrast under a confocal microscope,Duodenum; epithelial cells,provides clear fluorescent contrast for the shape of the epithelial cells
same,contrast under a white light source,Duodenum; small intestinal villi,conferred contrast such that observation of the small intestinal villi under a white light source became feasible
same,staining site under confocal microscope,liver; [5],not only the intercellular space and cellular membrane as observed in the duodenum or large intestine but also the lobular parts were stained
same,fluorescent contrast under confocal microscope,liver; connective tissue in the liver,provided good contrast for the Glisson's capsule
same,fluorescent contrast in confocal image,"mouse large intestine; 2.0 mg/mL, pH 7, He-Ne laser 633 nm, fluorescence 650 to 750 nm",provided fluorescent contrast to the images of the intercellular space of the mucosal epithelium of the large intestine
same,"chromophilic regions, Fast Green FCF versus Fluorescite","mouse large intestine; Fluorescite excited at 488 nm, single and double-stained images",the stain and Fluorescite had different chromophilic regions
same,fluorescent contrast in confocal images,"[3]; 1.0 mg/mL, pH 7, immersed 5 minutes",provided good fluorescent contrast for the connective tissue fibers in the tumor tissue
same,staining site in double staining,[3]; Monascus Yellow 1.0 mg/mL pH 6 together with Fast Green FCF,slightly stained the cells but more strongly stained the fibrous part
same,"can be excited at, for example",[4],628 nm
same,fluorescence detected at,[4],652 nm
same,maximum absorption wavelength,"[4]; 1.0 mg/ml, spectrophotometer 200 to 750 nm",628 nm
same,maximum excitation wavelength,[4]; fluorescence spectrophotometer,628 nm
same,maximum fluorescence wavelength,[4]; fluorescence spectrophotometer,652 nm
